Reference: patent US20070243144A1, “External Preparation” (TOYO SHINYAKU CO., LTD, priority 2004, published 2007)

Tested on: HFSKF-II cells (human skin fibroblast)
Experiment: Ability to suppress the generation of active oxygen caused by ultraviolet radiation
Assay type: cell-based
Conditions: 100 μg/mL in medium with 0.03 wt % hydrogen peroxide; UV A 365 nm 4.4 J/cm^2; DCFH-DA fluorescence; six wells
Method: HFSKF-II cells (human skin fibroblast; obtained from RIKEN) were seeded in a 96-well plate at a concentration of 2×10^5 cells/well, and using 0.1 mL of standard medium (Ham's F-12 medium containing 15% of fetal calf serum; manufactured by Sigma-Aldrich), these were incubated for 24 hours at 37° C. in a 5% CO2 atmosphere. Next, the plate was washed three times with PBS by the method of Hong Wang et al. (Free Radic. Biol. Med., 1999). Then the medium was replaced with a standard medium containing 100 μM of DCFH-DA (2′,7′-dichlorofluorescein diacetate; manufactured by Sigma-Aldrich) and this was incubated for 10 minutes at 37° C. in a 5% CO2 atmosphere. Next, the plate was washed three times with PBS. […] UV A is a UV radiation that readily passes through skin, and is known to promote skin aging.
Next, the fluorescence F of the DCFH-DA that is emitted due to the presence of active oxygen was measured with a multispectrometer (Varioscan; excitation wavelength: 485±10 nm, detection wavelength: 530±10 nm; Thermo Electron Corporation), and the suppression rate of the active oxygen generation due to UV radiation when the pueraria flower extract was employed was calculated from the following formula. […] Fsample: The fluorescence measured after the medium was replaced with a standard medium that contains pueraria flower extract and UV A was irradiated. […]

COC1=C(OC)C(=O)C(C/C=C(\C)CC/C=C(\C)CC/C=C(\C)CC/C=C(\C)CC/C=C(\C)CC/C=C(\C)CC/C=C(\C)CC/C=C(\C)CC/C=C(\C)CCC=C(C)C)=C(C)C1=O [Coenzyme Q10, coenzyme Q10]
Suppression rate of the active oxygen generation (%): 30.6 ± 7.7%
